Experimental data as given in patent publication US9416128B2, “Fused heterocyclic compounds as ion channel modulators” (Gilead Sciences, Inc., priority 2013, dated 2016).

Assays:
hNaV1.3 (SCN3A) = assay: Voltage-dependent inhibition of the NaV1.3 sodium channel; type: cell-based, human; conditions: voltage-dependent block at 1 uM
Method: HEK-293 cells stably expressing wild-type (WT) hNaV1.3 (SCN3A NCBI # NP_001075, SCN1B NCBI # NM_001037.4, SCN2B NCBI # NM_004588.2) were used to record INa. Cells are maintained with standard tissue culture procedures and stable channel expression is maintained with 800 ug/mL G418 and 3 ug/mL Puromycin in the culture medium. Unless otherwise noted, all reagents are purchased from Sigma-Aldrich (St Louis, Mo., U.S.A.).
Assays measuring Voltage-Dependent Block (VDB) of NaV1.3 are performed on an automated electrophysiology platform, QPatch 16X or QPatch HT (Sophion Bioscience, Copenhagen, Denmark), using the whole cell patch clamp technique to measure currents through the cell membrane. Series resistance compensation is set to 100% and series resistance and whole-cell compensation are performed automatically. Currents stored in the Sophion Bioscience Oracle database (Sophion Bioscience, Copenhagen, Denmark). Analysis is performed using QPatch Assay software and data are compiled in Excel 2010 (Microsoft, Seattle, Wash., U.S.A.).
The internal (pipette) solution consists of (in mM) 105 CsF, 10 NaF, 20 CsCl, 2 EGTA, 10 HEPES, 10 Dextrose with a pH of 7.35 and osmolarity of 300 mOsmol/kg. The external (bath) solution contains in (mM): 80 NaCl, 60 Choline-Cl, 4 KCl, 1.8 CaCl2, 1 MgCl2, 10 dextrose, 10 HEPES, with a pH of 7.35 and osmolarity of 310 mOsmol/kg. Experiments are carried out at 23-25° C.
Compound stocks are routinely made by the Gilead Sample Bank in vials to 10 mM in dimethyl sulfoxide (DMSO). In some cases, when compounds are not soluble in DMSO, they are made in 100% ethanol. […] Cells are allowed to stabilize for 10 min after establishment of the whole-cell configuration before current is measured. […]
Voltage-dependent block of NaV1.3 peak current was measured during a voltage step to 0 mV (20 ms) following a voltage step pre-conditioning steps (−55 mV for 10 sec followed by −120 mV for 10 ms). […] The voltage protocol for VDB was performed every 45 seconds in the absence and presence of compound and percentage inhibition was calculated with respect to the compound free condition.

[1] = tested on: ischemia-induced ST segment elevation; assay: Ischemia-induced ST segment elevation in anesthetized rabbits; type: in vivo, rabbit; conditions: iv infusion, 0.9 uM concentration
Method: This study was undertaken to determine the anti-ischemic effects of compounds of the present disclosure in an in vivo rabbit model.
Female New Zealand rabbits (3.0-4.0 kg) were purchased from Western Oregon Rabbitry. Animals were housed on a 12-h light and dark cycle and received standard laboratory chow and water. All experiments were performed in accordance with the Guide for the Care and Use of Laboratory Animals published by The National Research Council and with the experimental protocol approved by the Institutional Animal Care Committee of Gilead Sciences, Inc.
Rabbits were anesthetized with ketamine (35 mg/kg) and xylazine (5 mg/kg) intramuscular injection (im). A tracheotomy was performed and the trachea was intubated with an endotracheal tube. […]
Reference electrodes were placed in the open incision of the neck. The body temperature of the animal was monitored via a rectal thermometer and maintained at 37-40° C. by adjusting the surface temperature of the surgical table. […] The ischemic area was visualized by perfusing the heart with 1% Evans blue in saline and calculated as a percentage of total ventricular weight. […]

| SMILES | NaV1.3 VDB % inhibition at 1 uM (hNaV1.3 (SCN3A)) [%] | inhibition in the rabbit ST segment elevation assay [1] [%] |
| --- | --- | --- |
| O=C1Oc2ccc(-c3ccc(OC(F)(F)F)cc3F)cc2CN1Cc1ncccn1 [Example 7, 6-(2-fluoro-4-(trifluoromethoxy)phenyl)-3-(pyrimidin-2-ylmethyl)-3,4-dihydro-2H-benzo[e][1,3]oxazin-2-one] | 32 |  |
| COc1cc(OC(F)(F)F)ccc1-c1ccc2c(c1)CN(Cc1ncccn1)C(=O)O2 [Example 1, 6-(2-methoxy-4-(trifluoromethoxy)phenyl)-3-(pyrimidin-2-ylmethyl)-3,4-dihydro-2H-benzo[e][1,3]oxazin-2-one] |  | 58 |
| Cc1cc(-c2ccc3c(c2)CN(Cc2ncccn2)C(=O)O3)ccc1OC(F)(F)F [Example 5, 6-(3-methyl-4-(trifluoromethoxy)phenyl)-3-(pyrimidin-2-ylmethyl)-3,4-dihydro-2H-benzo[e][1,3]oxazin-2-one] | 31 |  |
| Cc1cc(OC(F)(F)F)ccc1-c1ccc2c(c1)CN(Cc1ncccn1)C(=O)O2 [Example 8, 6-(2-methyl-4-(trifluoromethoxy)phenyl)-3-(pyrimidin-2-ylmethyl)-3,4-dihydro-2H-benzo[e][1,3]oxazin-2-one] | 13.8 |  |
